Measured values reported in US20110118202A1, “Molecules which Bind to the Dimerization Initiation Site (DIS) of HIV RNA, Their Synthesis and Their Applications as Drugs” (priority 2006, published 2011).
“Also recorded” adds a separate entry of the source.

Tests used:
[1] = system: subtype A DIS in RNA1-615 (HIV-1 MAL genomic RNA); assay: DMS footprinting of aminoglycosides on RNA1-615 (subtype A DIS); type: binding; conditions: for protection of A280 against methylation by DMS: 10 μM and above; for protection of A280 against methylation by DMS / protection against methylation by DMS: RNA1-615; for protection against methylation by DMS: even at 100 μM
Protocol: (§1) Materials and Methods: Chemical footprinting experiments were performed on a 23-mer subtype A SL1 RNA or on RNA1-615, which corresponds to nucleotides 1-615 of HIV-1 Mal genomic RNA (Ennifar et al., J. Biol. Chem. 2003 278:2723-2730). Chemical modification was carried out either with dimethyl sulfate (DMS, Fluka) to test the accessibility of N1-A and N3-C positions or with lead acetate (Merck), which selectivity cleaves the subtype A DIS loop between the first and second nucleotides.
(§2) The binding of aminoglycosides to DIS can be detected through several biochemical methods: it induces protection toward chemical modification with dimethyl sulfate (DMS) or toward a specific cleavage in the subtype A promoted by lead (II); it also induces slower migration on non-denaturated gel.
Residues A272 and A280 of RNA1-615 are unpaired in the kissing-loop complex and are methylated by DMS at their N1 position. As previously observed (Baudin et al., J. Mol. Biol. 1993, 229:382-397; Paillart et al., J. Mol. Biol. 1997, 270:36-49), A280 is more reactive than A272, even though the latter nucleotide is flipped out of the helix, while the former is stacked inside the structure. […] On the other hand, A272, which is flipped out of the kissing-loop complex was not protected against methylation by DMS (FIG. 22B). […] Thus, even though these compounds bound to short DIS RNA in the same way as neomycin and lividomycin (FIGS. 19A and 19B), they were unable to efficiently recognize this target in the context of a large RNA.

[2] = system: subtype A DIS of HIV-1 genomic RNA; assay: In situ DMS footprinting in infected CEMx174 cells and virions, subtype A DIS; conditions: infected cells and viral particles; 3 mM aminoglycoside in culture
[3] = system: DIS kissing-loop complex of RNA1-615 (HIV-1 MAL, subtype A DIS); assay: Competition experiment: exchange of RNA 1-615 homodimer with RNA 1-311 (heterodimer formation); type: biochemical; conditions: for heterodimer formation after addition of RNA1-311: 100 μM aminoglycoside, fivefold excess RNA1-311, up to one hour; for heterodimer formation after addition of RNA1-311 / heterodimer formed compared with dimer 12: 37° C.; for heterodimer formed compared with dimer 12: FIG. 14; for exchange of preformed RNA homodimers (1-615/1-615) with RNA (1-311): FIG. 13
Protocol: Materials and Methods: In a typical experiment, unlabeled 1-615 RNA (400 nM), together with a corresponding internally labeled RNA (3-5 nCi), were heated for 2 min at 90° C., chilled for 2 min on ice, and dimerization was initiated by addition of 2 μl of 5-fold concentrated dimerization buffer (final concentration: 50 mM sodium cacodylate, pH 7.5, 300 mM KCl, 5 mM MgCl2). After incubation at 37° C. for 20 min, 100 μM of aminoglycosides were added to the RNA mixture and incubation was continue for 15 min. Then, RNA 1-311 was added as a competitor and sample were collected at 2, 5, 10, 15, 20, 30, and 60 min and analyzed on 0.8% agarose gels (45 mM Tris borate pH 8.3, 01 mM MgCl2) at 4° C. Gels were fixed in TCA 10%, dried, and analyzed using a BAS 2000 Bio-Imager (Fuji).
The kissing-loop complex of radiolabeled RNA1-615 was formed, and then aminoglycosides at a 100 AM concentration were added. Next, a fivefold excess of unlabeled RNA1-311, encompassing nucleotides 1 to 311 of HIV-1 MAL genomic RNA, that also contains the subtype A DIS and is thus able to form a heterodimer with RNA1-615, was added (FIG. 24). Due to the dynamic nature of the kissing-loop complex, in the absence of aminoglycoside, greater than half of the radioactive material was shifted in the heterodimer within two minutes, and the RNA1-615 homodimer almost completely disappeared upon prolonged incubation. […] This observation is in keeping with the crystal structures showing that 4,5-disubstituted DOS form a bridge between the two RNA molecules (FIG. 18).
The aminoglycosides have also been investigated in solution. Their ability to stabilize the loop-loop interaction was investigated through competition experiments. Preformed RNA homodimers (1-615/1-615) were placed in the presence of the same but shorter RNA (1-311), and the kinetic of their exchanges was followed in the presence, or not, of aminoglycosides (FIG. 13).

[4] = system: subtype B kissing-loop complex; assay: DMS footprinting, subtype B DIS; type: binding, HIV-1; conditions: NL4.3 sequence
Protocol: as §1
The dimeric molecules also protect from DMS modification as neomycin (FIG. 10).
In addition, none of the 4,5-disubstituted DOS was bound to the subtype B kissing-loop complex.

[5] = system: subtype F kissing-loop complex; assay: DMS footprinting, subtype F DIS in the context of RNA1-615; type: binding, HIV-1
[6] = system: subtype F DIS of HIV-1 genomic RNA; assay: In situ DMS footprinting in infected CEMx174 cells and virions, subtype F DIS; conditions: infected cells and viral particles; 3 mM aminoglycoside in culture
[7] = system: DIS kissing-loop complex in RNA1-615 (HIV-1 MAL genomic RNA, subtype A DIS); assay: Lead-induced cleavage of RNA1-615, primer extension assay; type: binding
Protocol: as §1
To evaluate the capacity of 4,5-disubstituted DOS to bind to the DIS kissing-loop complex in a larger RNA presenting numerous unspecific binding sites, RNA1-615, which corresponds to nucleotides 1 to 615 of the HIV-1 MAL genomic RNA, was used.

[8] = system: subtype A DIS kissing-loop complex (23-mer RNA); assay: Lead(II)-induced cleavage of the DIS loop, 23-mer RNA (footprinting); type: binding, HIV-1; conditions: for inhibition of lead-induced cleavage of the subtype A DIS loop: 25 μM aminoglycoside; for inhibition of lead-induced cleavage of the DIS loop, relative efficiency: FIG. 21
Protocol: as §1, §2
At this stage, it was unclear if this class of compound is able to bind to the DIS kissing-loop complex. To compare binding of 4,5-disubstituted and 4,6-disubstituted DOS, a 23-mer RNA corresponding to the subtype A DIS, which was allowed to dimerize in conditions permitting crystallization of the kissing-loop complex, was used. As previously shown, lead (II) induced a specific cleavage in the subtype A DIS loop that is sensitive to the binding of aminoglycoside (FIG. 21).

[9] = system: subtype B DIS of HIV-1 genomic RNA; assay: In situ DMS footprinting in infected CEMx174 cells and virions, subtype B DIS; conditions: infected cells and viral particles; 3 mM aminoglycoside in culture
ribosomal A site = conditions: Wong et al., Chem. Biol. 1998; cited from earlier work
[10] = subtype A, loop adenine A280 and guanine G274

SMILES | protection from DMS modification [1, 10] | reduction of alkylation (DMS) of A280 of the subtype A DIS [2] | heterodimer formation after addition of RNA1-311 [3] | heterodimer formed compared with dimer 12 [3] | exchange of preformed RNA homodimers (1-615/1-615) with RNA (1-311) [3] | interaction seen by DMS modification [4] | binding to the subtype F kissing-loop complex by DMS footprinting [5] | protection of A280 against methylation by DMS [1] | protection from DMS modification ([1]; Mal sequence) | reduction of alkylation (DMS) of A280 of the subtype F DIS [6] | inhibition of lead-induced cleavage between A272 and G273 ([7]; 50 μM) | inhibition of lead-induced cleavage of the subtype A DIS loop [8] | inhibition of lead-induced cleavage of the DIS loop, relative efficiency [8] | protection of A280 against DMS methylation of subtype B DIS [9] | protection against methylation by DMS [1] | inhibition of lead-induced cleavage between A272 and G273 ([7]; even at 100 μM) | affinity for the ribosomal A site (ribosomal A site)
NC[C@H]1O[C@H](O[C@H]2[C@H](O)[C@@H](O[C@H]3O[C@H](CO)[C@@H](O)[C@H](N)[C@H]3O)[C@H](N)C[C@@H]2N)[C@H](N)C[C@@H]1O [tobramycin] | no protection | – | – | – | – | – | – | – | – | – | – | – | – | – | – | – | –
NCC1O[C@H](O[C@@H]2C(N)C[C@@H](N)C(O)[C@H]2O[C@@H]2O[C@H](CO)C(O[C@H]3O[C@H](CN)[C@@H](O)C(O)C3N)[C@@H]2O)C(N)[C@@H](O)[C@@H]1O (some centres unmarked) [neomycin] | protects from DMS modification the loop adenine A280 and the guanine G274 | more than two-fold | only minimal amounts of heterodimer were formed | twice less heterodimer | almost totally abolish the exchange | no significant interaction | efficiently bound | strongly protected A280 against methylation | protect from DMS modification the bases implicated in the interaction | more than two-fold | almost completely inhibited | completely inhibited | equally inhibited | did not protect A280 | – | – | –
NC[C@H]1O[C@H](O[C@H]2[C@H](O[C@@H]3O[C@H](CO)[C@@H](O)[C@H]3O)[C@@H](O)[C@H](N)C[C@@H]2N)[C@H](N)[C@@H](O)[C@@H]1O [ribostamycin] | – | – | – | – | – | – | did not bind | – | – | – | – | – | less efficient | – | no protection against methylation | no inhibition | –
NC[C@@H]1O[C@H](O[C@H]2[C@@H](O)[C@H](O[C@@H]3[C@@H](O)[C@H](N)C[C@H](N)[C@H]3O[C@H]3O[C@H](CO)[C@@H](O)C[C@H]3N)O[C@@H]2CO)[C@H](N)[C@@H](O)[C@@H]1O[C@H]1O[C@H](CO)[C@@H](O)[C@H](O)[C@@H]1O [lividomycin] | – | more than two-fold | only minimal amounts of heterodimer were formed | twice less heterodimer | almost totally abolish the exchange | – | efficiently bound | strongly protected A280 against methylation | – | more than two-fold | almost completely inhibited | completely inhibited | – | did not protect A280 | – | – | –
NC[C@H]1O[C@H](O[C@H]2[C@H](O)[C@@H](O)[C@H](N)C[C@@H]2N)[C@H](N)[C@@H](O)[C@@H]1O [neamine] | – | – | – | – | – | – | did not bind | – | – | – | – | – | less efficient; also recorded: inhibited cleavage at lower concentration than the tricyclic ribostamycin | – | no protection against methylation | no inhibition | higher affinity than ribostamycin
NC[C@@H]1O[C@H](O[C@H]2[C@@H](O)[C@H](O[C@@H]3[C@@H](O)[C@H](N)C[C@H](N)[C@H]3O[C@H]3O[C@H](CO)[C@@H](O)[C@H](O)[C@H]3N)O[C@@H]2CO)[C@H](N)[C@@H](O)[C@@H]1O [paromomycin] | – | more than two-fold | only minimal amounts of heterodimer were formed | twice less heterodimer | almost totally abolish the exchange | no significant interaction | – | – | protect from DMS modification the bases implicated in the interaction | – | – | – | – | did not protect A280 | – | – | –
